# Test system: recombinant Arabidopsis thaliana
# Assay: Flowering induction in recombinant Arabidopsis thaliana
# Type: in vivo
# Settings: Arabidopsis with vector (e); 50 μM CuSO4 medium for six hours; observed five days after treatment; compared to non-inducible group
# Method: The vector (e) prepared in Example 1 was introduced into Agrobacterium (Agrobacterium tumefaciens strain C58C1). The resulting Agrobacterium was cultured in a LB agar medium (0.5% yeast extract, 1.0% bactotrypton, 0.5% saline, 1% agar) containing 50 mg/L kanamycin, 100 mg/L ampicillin, and 100 mg/L rifampicin, and a drug-resistant colony was selected to obtain recombinant Agrobacterium. Arabidopsis (Arabidopsis thaliana ecotype Columbia) was infected by the obtained recombinant Agrobacterium according to the method described in Model Plant Laboratory Manual (edited by Iwabuchi Masaki et al, 2000, Springer-Verlag Tokyo Co., Ltd., ISBN 4-431-70881-2 C3045) to introduce genes. After T1 seeds collected from the Arabidopsis subjected to gene introduction, the seeds were plated and grown on a modified MS agar medium (MS inorganic salts, B5 vitamin, 1% sucrose, 0.8% agar) containing 20 mg/L of Benlate, 200 mg/L of Claforan, and 25 mg/L kanamycin to select a plant individual resistant to kanamycin. The selected plant individual was transplanted to a pot in which culture soil was previously placed, and grown in an artificial weather chamber to obtain T2 seeds. […]
smiles,measurement,value
O=S(=O)([O-])[O-].[Cu+2] [CuSO4],flowering time,flowering was induced earlier
